Data taken from ChEMBL document CHEMBL1201862, “PubChem BioAssay data set” (2004).
Active and inactive are the calls of the source.

Experiments:
[1] = target: T1, Small ubiquitin-related modifier 2 (Homo sapiens, UniProt P61956); test: disruption of SUMO2 interaction with SIM peptide – biochemical, fluorescence polarization, uHTS hits, selectivity assay for SUMO1 interaction inhibitor project, dose response (AID 624385); type: functional; settings: read-out: IC50_Mean
[2] = target: T2, Tyrosine-protein phosphatase non-receptor type 22 (Homo sapiens, UniProt Q9Y2R2); test: lymphoid phosphatase LYP inhibitors – biochemical, selectivity assay for STEP inhibitor project, dose response (AID 624241); type: functional
T2 sequence (Q9Y2R2 whole entry): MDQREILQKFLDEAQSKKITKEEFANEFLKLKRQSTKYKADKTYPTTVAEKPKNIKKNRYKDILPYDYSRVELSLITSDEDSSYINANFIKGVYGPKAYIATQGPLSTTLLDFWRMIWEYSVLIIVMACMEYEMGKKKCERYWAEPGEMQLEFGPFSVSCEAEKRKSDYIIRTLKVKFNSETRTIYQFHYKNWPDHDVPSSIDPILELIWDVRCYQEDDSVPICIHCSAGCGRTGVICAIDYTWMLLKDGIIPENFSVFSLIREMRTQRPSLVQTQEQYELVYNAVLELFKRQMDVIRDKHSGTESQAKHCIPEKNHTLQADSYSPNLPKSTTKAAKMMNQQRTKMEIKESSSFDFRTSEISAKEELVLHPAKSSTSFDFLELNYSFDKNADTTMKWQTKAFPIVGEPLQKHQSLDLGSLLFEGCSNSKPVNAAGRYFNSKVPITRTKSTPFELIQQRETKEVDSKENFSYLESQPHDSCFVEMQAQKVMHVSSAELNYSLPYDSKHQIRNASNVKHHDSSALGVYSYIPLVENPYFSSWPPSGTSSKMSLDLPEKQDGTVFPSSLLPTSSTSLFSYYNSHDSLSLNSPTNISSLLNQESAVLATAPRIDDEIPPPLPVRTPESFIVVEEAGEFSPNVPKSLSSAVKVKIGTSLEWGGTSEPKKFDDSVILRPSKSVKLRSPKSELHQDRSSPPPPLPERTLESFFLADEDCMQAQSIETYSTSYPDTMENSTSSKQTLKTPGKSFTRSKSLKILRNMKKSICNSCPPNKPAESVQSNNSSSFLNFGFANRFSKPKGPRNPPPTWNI

[3] = target: Dual specificity protein phosphatase 3 (Homo sapiens, UniProt P51452); test: VHR phosphatase inhibition, dose response, selectivity assay for STEP inhibitor project, biochemical (AID 602374); type: functional; settings: read-out: IC50_Mean
[4] = target: T1, Small ubiquitin-related modifier 2; test: SUMO2 binding disruption by SUMO1 hits – biochemical, FRET, human SUMO2, uHTS hits, selectivity assay for SUMO1 interaction inhibitor project, dose response (AID 624384); type: functional; settings: read-out: IC50_Mean
[5] = target: T3, Small ubiquitin-related modifier 1 (Homo sapiens, UniProt P63165); test: SUMO1 protein interaction blockers, potency – biochemical, fluorescence polarization, uHTS hits, dose response (AID 624382); type: functional; settings: read-out: IC50_Mean
T3 sequence (P63165 whole entry): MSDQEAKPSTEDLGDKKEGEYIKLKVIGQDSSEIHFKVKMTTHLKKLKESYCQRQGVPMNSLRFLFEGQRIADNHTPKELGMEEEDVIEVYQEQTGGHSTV

[6] = target: T3, Small ubiquitin-related modifier 1; test: SUMO1 protein-protein binding blockers, potency – biochemical, FRET, dose response (AID 624383); type: functional; settings: read-out: IC50_Mean
[7] = target: T4, Carboxy-terminal domain RNA polymerase II polypeptide A small phosphatase 1 (Homo sapiens, UniProt Q9GZU7); test: CTDSP1 inhibitors, concentration-response, biochemical, absorbance readout, ultra-high-throughput screen actives (AID 540297); type: functional
T4 sequence (Q9GZU7 whole entry): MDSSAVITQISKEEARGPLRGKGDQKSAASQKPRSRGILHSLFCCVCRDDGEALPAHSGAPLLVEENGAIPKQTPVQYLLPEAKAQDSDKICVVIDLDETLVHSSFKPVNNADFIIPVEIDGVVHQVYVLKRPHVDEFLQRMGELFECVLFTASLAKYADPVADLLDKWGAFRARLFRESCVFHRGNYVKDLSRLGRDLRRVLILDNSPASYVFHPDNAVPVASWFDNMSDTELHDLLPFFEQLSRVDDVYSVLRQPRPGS

[8] = target: Polyadenylate-binding protein 1 (Homo sapiens, UniProt P11940); test: blockers of PABP interaction with poly(A) – biochemical, fluorescence polarization, […] (AID 2014)
Chain of Polyadenylate-binding protein 1 (P11940 whole entry): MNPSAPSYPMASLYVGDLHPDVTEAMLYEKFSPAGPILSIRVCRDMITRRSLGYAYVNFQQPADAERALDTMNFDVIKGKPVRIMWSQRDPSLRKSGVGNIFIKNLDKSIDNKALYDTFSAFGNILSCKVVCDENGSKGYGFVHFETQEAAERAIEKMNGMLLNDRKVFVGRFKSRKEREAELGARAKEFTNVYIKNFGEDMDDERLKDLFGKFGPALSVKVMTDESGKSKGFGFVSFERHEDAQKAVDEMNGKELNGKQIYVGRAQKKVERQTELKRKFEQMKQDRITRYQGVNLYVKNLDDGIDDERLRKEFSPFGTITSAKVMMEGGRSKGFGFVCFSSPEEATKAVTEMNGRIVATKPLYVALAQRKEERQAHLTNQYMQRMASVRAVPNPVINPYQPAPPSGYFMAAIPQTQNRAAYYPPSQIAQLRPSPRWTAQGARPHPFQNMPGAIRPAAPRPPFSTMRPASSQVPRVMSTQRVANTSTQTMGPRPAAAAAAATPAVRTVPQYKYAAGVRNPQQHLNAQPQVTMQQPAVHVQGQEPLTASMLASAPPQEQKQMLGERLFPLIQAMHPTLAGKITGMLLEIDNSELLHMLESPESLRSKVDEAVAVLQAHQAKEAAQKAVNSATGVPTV

[9] = target: T5, Tyrosine-protein phosphatase non-receptor type 11 (Homo sapiens, UniProt Q06124); test: PTPN11 enzyme inhibitors – biochemical, selectivity assay for STEP inhibitor project, dose response (AID 602367); type: functional; settings: read-out: IC50_Mean
T5 sequence (Q06124 whole entry): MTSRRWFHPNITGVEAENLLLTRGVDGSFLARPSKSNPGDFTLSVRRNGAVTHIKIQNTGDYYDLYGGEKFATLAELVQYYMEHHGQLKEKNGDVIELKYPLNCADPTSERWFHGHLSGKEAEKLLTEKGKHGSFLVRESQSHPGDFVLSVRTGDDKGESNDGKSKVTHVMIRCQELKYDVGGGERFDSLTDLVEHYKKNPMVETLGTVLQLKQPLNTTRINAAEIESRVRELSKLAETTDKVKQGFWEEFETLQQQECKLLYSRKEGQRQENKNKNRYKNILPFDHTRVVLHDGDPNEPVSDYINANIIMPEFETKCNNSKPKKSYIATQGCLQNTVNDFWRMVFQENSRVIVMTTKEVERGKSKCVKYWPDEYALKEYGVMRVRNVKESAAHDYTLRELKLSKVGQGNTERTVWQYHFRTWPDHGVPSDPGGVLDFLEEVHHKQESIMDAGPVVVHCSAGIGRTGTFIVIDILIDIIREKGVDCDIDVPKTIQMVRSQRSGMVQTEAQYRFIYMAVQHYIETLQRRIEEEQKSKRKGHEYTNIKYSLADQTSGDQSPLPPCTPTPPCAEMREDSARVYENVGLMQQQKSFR

[10] = target: Eukaryotic translation initiation factor 4H (Homo sapiens, UniProt Q15056); test: eIF4H binding inhibition – biochemical, uHTS, fluorescence polarization, translation initiation inhibitor project, primary screen (AID 2012)
[11] = target: T6, Tyrosine-protein phosphatase non-receptor type 5 (Homo sapiens, UniProt P54829); test: PTPN5 enzyme inhibition – biochemical, fluorescence intensity, uHTS hits, confirmation (AID 602372); type: functional; settings: read-out: IC50_Mean
T6 sequence (P54829 whole entry): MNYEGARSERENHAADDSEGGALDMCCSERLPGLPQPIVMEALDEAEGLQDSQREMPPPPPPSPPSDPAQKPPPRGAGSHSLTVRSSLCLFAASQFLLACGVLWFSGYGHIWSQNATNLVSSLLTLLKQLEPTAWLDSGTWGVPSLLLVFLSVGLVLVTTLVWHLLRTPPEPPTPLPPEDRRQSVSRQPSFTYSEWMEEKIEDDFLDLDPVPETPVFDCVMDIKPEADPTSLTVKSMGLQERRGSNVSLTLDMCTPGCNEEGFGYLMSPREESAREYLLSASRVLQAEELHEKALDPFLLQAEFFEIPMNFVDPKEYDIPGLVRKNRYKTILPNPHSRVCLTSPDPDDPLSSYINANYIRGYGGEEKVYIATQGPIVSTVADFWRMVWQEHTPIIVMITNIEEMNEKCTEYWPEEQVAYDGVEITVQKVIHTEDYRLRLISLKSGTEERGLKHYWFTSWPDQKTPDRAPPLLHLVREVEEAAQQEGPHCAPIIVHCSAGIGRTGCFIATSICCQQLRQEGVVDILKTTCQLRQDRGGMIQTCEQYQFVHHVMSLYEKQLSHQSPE

[12] = target: Hepatocyte nuclear factor 4-alpha (Homo sapiens, UniProt P41235); type: functional, cell-based;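 also: biochemical luminescence-based dose-response counterscreen measuring inhibition of HNF4 dimerization, run alongside a screen for blockers of ABHD5–perilipin-5 interaction; split luciferase complementation of HNF4 fusion proteins in cell lysate measuring dimerization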
Chain of Hepatocyte nuclear factor 4-alpha (P41235 whole entry, the tested form may be a part): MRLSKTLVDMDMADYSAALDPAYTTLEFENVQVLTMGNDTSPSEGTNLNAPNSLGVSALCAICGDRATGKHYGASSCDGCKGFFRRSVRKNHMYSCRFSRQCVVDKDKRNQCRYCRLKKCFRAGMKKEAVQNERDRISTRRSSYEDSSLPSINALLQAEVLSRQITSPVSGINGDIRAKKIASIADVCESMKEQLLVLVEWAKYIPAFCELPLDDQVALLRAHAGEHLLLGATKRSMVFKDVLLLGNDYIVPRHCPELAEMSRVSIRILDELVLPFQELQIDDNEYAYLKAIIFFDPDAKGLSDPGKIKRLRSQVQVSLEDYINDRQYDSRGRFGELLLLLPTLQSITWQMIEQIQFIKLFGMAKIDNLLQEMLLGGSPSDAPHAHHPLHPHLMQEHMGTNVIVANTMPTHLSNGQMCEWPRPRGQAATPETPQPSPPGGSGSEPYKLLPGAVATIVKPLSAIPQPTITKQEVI

[13] = Fluorescence-based cell-based high throughput dose response assay for inhibitors of the interaction of nucleotide-binding oligomerization domain containing 2 (NOD2) and the receptor-interacting serine-threonine kinase 2 (RIPK2).; type: functional; settings: Homo sapiens
Beta Lactamase = Beta Lactamase (Pseudomonas aeruginosa, UniProt Q932Y6); test: BLA reporter interference, concentration series – BLA reporter cells, FRET fluorescence, artefact control for NOD2-RIPK2 interaction inhibitor project, dose response (AID 651552); type: functional, cell-based
Chain of Beta Lactamase (Q932Y6 whole entry): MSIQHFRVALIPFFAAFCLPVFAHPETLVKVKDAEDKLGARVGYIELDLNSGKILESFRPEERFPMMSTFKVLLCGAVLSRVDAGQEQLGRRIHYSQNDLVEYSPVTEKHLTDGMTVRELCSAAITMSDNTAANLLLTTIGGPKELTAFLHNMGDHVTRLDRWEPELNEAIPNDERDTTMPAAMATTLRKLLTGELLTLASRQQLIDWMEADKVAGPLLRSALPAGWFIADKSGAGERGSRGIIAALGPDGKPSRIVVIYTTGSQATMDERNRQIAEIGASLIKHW

Fatty acid synthase = Fatty acid synthase (Homo sapiens, UniProt P49327); test: inhibition of human FAS-TE enzyme activity – biochemical, kinetic fluorescence intensity, dose response (AID 624326); type: functional;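 also: rate of fluorescence rise from hydrolysis of a fluorogenic O-methyl fluorescein ester substrate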
[14] = target: T7, DNA repair protein RAD52 homolog (Homo sapiens, UniProt P43351); type: functional, biochemical
T7 sequence (P43351 whole entry): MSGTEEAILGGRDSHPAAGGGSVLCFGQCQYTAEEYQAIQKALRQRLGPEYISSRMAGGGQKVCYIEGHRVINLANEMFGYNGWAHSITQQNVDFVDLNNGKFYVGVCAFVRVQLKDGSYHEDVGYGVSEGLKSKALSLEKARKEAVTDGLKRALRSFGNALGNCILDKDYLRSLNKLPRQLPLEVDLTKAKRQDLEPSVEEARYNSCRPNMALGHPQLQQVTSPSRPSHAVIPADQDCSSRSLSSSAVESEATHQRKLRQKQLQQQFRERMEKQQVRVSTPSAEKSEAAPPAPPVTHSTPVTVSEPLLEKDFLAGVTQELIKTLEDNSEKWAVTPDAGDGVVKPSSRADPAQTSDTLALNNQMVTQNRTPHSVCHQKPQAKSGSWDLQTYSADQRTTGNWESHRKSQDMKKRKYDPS

[15] = cytotoxicity toward MDA-MB-231 breast cancer cells – cell-based, CellTiter-Glo luminescence, cherry-pick, cytotoxicity control for RAD54 inhibitor project, dose response (AID 651692); type: functional
[16] = target: T8, DNA repair and recombination protein RAD54-like (Homo sapiens, UniProt Q92698); test: RAD54 Holliday junction migration blockers – biochemical, fluorescence, cherry-picked samples, dose series, confirmation (AID 651657); type: functional
T8 sequence (Q92698 whole entry): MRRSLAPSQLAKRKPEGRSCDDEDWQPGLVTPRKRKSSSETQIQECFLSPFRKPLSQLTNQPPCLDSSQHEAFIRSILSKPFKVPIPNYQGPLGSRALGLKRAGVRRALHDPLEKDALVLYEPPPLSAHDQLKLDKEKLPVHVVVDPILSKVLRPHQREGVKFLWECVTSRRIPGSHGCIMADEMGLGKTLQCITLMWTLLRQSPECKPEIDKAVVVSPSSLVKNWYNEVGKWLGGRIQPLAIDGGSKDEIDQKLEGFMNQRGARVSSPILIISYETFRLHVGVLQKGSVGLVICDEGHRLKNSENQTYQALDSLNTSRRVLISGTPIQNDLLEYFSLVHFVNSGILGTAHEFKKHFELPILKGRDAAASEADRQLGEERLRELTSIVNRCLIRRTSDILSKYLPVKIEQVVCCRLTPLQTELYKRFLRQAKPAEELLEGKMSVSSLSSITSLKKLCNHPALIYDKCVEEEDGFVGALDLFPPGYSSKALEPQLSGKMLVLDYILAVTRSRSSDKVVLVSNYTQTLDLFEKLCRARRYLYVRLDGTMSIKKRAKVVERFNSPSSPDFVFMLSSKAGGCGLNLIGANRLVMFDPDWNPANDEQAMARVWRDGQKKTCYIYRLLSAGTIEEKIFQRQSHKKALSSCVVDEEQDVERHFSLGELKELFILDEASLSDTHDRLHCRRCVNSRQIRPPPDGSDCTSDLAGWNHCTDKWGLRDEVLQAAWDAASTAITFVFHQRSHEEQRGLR

[17] = target: Photoreceptor-specific nuclear receptor (Homo sapiens, UniProt Q9Y5X4); type: functional, cell-based;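 also: CHO-S cells with Gal4-NCOR and VP16-NR2E3 two-hybrid luciferase reporter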
INS1 = test: INS-1E survival protection against cytokine death – cell-based, luminescence, retest, dose response (AID 449756); type: functional; settings: Rattus norvegicus;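 also: cell death triggered by IL-1 beta plus TNF-alpha plus IFN-gamma mixture; protective hits raise ATP signal compared with cytokine alone wells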
[18] = target: T9, Voltage-gated N-type calcium channel alpha-1B subunit/Amyloid beta A4 precursor protein-binding family A member 1 (Homo sapiens, UniProt Q00975+Q02410); type: protein assay
T9 sequence (Q00975 whole entry): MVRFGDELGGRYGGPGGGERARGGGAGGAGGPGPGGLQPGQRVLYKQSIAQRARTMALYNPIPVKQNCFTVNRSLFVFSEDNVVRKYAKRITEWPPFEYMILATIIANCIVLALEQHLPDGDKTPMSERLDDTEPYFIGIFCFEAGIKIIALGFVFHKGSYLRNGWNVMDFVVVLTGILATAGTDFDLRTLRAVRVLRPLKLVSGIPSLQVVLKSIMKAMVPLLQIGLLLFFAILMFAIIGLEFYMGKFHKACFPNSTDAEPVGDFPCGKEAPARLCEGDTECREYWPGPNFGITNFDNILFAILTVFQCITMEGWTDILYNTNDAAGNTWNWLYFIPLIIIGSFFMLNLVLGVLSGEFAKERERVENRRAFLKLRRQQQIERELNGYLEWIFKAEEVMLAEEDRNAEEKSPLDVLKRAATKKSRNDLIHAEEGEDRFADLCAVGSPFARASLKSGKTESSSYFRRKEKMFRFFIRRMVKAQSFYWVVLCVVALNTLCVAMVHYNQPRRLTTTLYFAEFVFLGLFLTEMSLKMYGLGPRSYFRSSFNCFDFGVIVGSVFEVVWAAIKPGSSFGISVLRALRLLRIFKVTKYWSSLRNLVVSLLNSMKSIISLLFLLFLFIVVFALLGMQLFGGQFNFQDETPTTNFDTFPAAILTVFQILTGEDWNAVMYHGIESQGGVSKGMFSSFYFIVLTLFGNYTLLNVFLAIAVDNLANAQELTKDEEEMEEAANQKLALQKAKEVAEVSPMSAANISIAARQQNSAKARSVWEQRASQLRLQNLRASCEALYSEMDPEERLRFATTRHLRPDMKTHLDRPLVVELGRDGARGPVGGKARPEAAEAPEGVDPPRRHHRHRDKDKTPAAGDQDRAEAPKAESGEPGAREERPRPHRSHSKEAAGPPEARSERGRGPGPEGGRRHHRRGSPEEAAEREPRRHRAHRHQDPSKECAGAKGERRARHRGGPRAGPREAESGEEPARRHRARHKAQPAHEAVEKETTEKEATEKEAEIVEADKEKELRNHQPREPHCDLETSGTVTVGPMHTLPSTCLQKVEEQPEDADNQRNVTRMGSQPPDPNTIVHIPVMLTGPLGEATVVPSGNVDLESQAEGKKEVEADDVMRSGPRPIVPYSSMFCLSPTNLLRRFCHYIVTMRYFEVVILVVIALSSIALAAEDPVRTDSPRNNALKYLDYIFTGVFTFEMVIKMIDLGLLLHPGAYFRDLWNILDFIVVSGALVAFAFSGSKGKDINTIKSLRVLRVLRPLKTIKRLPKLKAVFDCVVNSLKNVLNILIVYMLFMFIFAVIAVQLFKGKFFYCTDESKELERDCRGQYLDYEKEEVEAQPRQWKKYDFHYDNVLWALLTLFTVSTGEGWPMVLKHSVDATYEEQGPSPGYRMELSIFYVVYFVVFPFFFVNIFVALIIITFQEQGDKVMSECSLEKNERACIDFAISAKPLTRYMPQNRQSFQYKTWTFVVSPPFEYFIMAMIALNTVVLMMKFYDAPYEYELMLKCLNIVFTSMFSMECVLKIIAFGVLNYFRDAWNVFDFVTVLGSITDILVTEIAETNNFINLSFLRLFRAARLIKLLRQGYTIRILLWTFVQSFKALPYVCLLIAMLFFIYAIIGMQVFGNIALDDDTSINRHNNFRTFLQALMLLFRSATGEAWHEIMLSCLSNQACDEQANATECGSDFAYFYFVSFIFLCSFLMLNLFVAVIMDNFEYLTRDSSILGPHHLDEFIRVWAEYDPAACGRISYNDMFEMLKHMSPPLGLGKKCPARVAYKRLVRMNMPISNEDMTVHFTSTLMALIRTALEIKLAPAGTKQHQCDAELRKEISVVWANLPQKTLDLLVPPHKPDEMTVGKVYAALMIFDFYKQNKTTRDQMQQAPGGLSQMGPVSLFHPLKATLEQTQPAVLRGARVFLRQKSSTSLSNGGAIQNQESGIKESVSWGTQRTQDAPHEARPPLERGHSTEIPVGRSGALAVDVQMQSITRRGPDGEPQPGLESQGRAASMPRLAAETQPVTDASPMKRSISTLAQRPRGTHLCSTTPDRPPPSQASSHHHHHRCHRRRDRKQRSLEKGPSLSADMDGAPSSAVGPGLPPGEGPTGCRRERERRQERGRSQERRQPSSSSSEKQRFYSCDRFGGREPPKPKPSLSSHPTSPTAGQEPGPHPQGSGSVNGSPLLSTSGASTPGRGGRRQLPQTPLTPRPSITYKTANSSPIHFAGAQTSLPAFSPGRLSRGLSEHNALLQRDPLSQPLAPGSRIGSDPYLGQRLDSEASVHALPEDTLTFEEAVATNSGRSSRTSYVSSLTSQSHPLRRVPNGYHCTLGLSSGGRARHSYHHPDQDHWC
T9 sequence (Q02410 whole entry): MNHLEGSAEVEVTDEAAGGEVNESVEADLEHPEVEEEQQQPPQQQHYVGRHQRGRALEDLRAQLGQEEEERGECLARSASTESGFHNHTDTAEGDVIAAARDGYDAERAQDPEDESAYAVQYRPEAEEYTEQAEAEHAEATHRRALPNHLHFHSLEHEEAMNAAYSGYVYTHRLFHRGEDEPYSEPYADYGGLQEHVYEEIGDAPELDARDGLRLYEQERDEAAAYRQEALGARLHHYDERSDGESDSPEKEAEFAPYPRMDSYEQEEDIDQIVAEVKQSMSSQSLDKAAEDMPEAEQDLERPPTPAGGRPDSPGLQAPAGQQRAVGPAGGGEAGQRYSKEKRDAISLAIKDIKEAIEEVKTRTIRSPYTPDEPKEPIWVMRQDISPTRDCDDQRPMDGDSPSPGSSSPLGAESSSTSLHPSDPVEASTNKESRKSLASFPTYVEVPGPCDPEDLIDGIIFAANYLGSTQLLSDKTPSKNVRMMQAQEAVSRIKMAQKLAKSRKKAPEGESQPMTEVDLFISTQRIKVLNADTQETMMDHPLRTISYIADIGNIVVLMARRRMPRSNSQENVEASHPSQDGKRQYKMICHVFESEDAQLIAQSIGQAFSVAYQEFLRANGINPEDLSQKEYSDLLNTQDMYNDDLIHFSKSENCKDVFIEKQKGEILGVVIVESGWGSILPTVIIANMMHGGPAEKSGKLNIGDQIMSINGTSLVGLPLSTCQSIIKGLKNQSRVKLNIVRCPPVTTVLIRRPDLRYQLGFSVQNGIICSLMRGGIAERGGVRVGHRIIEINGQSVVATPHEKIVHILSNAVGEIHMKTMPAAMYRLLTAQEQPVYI

[19] = target: T9, Voltage-gated N-type calcium channel alpha-1B subunit/Amyloid beta A4 precursor protein-binding family A member 1; type: protein assay; remark: listed apart in the source
[20] = target: T10, Low molecular weight phosphotyrosine protein phosphatase (Homo sapiens, UniProt P24666); type: functional; settings: read-out: IC50_Mean;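 also: Dose-response confirmation assay measuring inhibition of LMPTP enzyme activity by fluorescence intensity read-out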
T10 sequence (P24666 whole entry): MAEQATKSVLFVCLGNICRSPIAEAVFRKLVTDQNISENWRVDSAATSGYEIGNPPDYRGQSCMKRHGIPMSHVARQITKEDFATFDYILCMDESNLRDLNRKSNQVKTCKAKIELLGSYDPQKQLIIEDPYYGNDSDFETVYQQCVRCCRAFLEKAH

[21] = target: T2, Tyrosine-protein phosphatase non-receptor type 22; test: PTPN22 enzyme inhibitors – biochemical, fluorescence, LYP catalytic domain, selectivity assay for LMPTP inhibitor project, dose response (AID 652006); type: functional; settings: read-out: IC50_Mean
[22] = target: DNA (cytosine-5)-methyltransferase 1 (Homo sapiens, UniProt P26358); test: inhibition of DNA methylation by DNMT1 – biochemical, fluorescent molecular beacon, confirmation (AID 602386); type: functional

T1 sequence (P61956 whole entry): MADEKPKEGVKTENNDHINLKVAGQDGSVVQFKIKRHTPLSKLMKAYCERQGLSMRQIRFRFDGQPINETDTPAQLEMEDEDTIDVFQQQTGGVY

SMILES: O=C(Nc1cc([N+](=O)[O-])ccc1O)c1cccc(C(=O)Nc2cc([N+](=O)[O-])ccc2O)c1
- IC50 [1]: 9.33 µM (active)
- IC50 [2]: 8.76 µM (active)
- IC50 [3]: 0.509 µM (active)
- IC50 [4]: > 66 µM (inactive)
- IC50 [5]: 0.751 µM (active)
- IC50 [6]: 53.8 µM (inactive)
- IC50 [7]: 1.03 µM (active)
- IC50 [8]: 8.96 µM (active)
- IC50 [9]: 0.456 µM (active)
- IC50 [10]: 7.71 µM (active)
- IC50 [11]: 1.98 µM (active)

SMILES: CCC(c1nc2ccccc2[nH]1)n1c(=O)c(-c2ccco2)nc2ccccc21 (stereo not drawn)
- IC50 [12]: 3.79 µM (active)

SMILES: CCOC(=O)[C@]12Cc3ccccc3[C@H]1N(C1CCCCC1)C(=O)c1cc(OC)ccc12
- IC50 [13]: 2.28 µM (active)
- IC50 (Beta Lactamase): 48 µM (inactive)
- IC50 (Fatty acid synthase): 8.19 µM (active)

SMILES: COc1cc(C(=O)NC2CCN(C)CC2)ccc1Nc1ncc2c(n1)N(C1CCCCC1)CCC(=O)N2C
- AC50 [14]: 5.86 µM (active)
- AC50 [15]: 32.5 µM (active)
- AC50 [16]: 12 µM (active)

SMILES: Cc1sc2ncnc(NCC(O)c3ccccc3)c2c1C (stereo not drawn)
- IC50 [17]: 20.9 µM (inactive)
- AC50 (INS1): 5.29 µM (active)

SMILES: CCOC(=O)c1cc(-c2ccc(N3CCOCC3)cc2)nn1-c1ccccc1C(=O)O
- IC50 [18]: 5.98 µM (active)
- IC50 [5]: > 66.6 µM (inactive)
- IC50 [19]: > 50 µM (inactive)
- IC50 [20]: 12.3 µM (active)
- IC50 [6]: 1.51 µM (active)
- IC50 [7]: 5.98 µM (active)
- IC50 [21]: 8.42 µM (active)
- IC50 [22]: 6.99 µM (active)
